Data on 4 compounds can be found in ChEMBL document CHEMBL1149432, “Evaluation of hydroxyimine as cytochrome P450-selective prodrug structure” (J Med Chem, 2006).

Data set [1] is described as follows: Metabolic stability by incubation with rat liver microsomes treated with 3-methylcholanthrene. It counts as ADME, Microsome. The note with it: 3-methylcholanthrene-treated. On the technique in general: Microsomes from liver hold many membrane-bound enzymes, among them those of drug oxidation.
A short description of data set [2]: Chemical stability at pH 9.0. The note with it: buffer. It counts as physicochemical.
A short description of data set [3]: Metabolic stability by incubation with rat liver microsomes. It counts as ADME, Microsome.
The nature of data set [4]: Aqueous solubility at pH 5.0.
Data set [5] in a line: Metabolic stability by incubation with rat liver microsomes treated with Dexamethasone. It counts as ADME, Microsome.
A short description of data set [6]: Chemical stability at pH 7.4. It counts as physicochemical. The conditions noted are these: buffer.
Data set [7] in a line: Chemical stability in 80% human serum (pH 7.4). It counts as physicochemical.
Data set [8] in a line: Chemical stability at pH 1.0. It counts as physicochemical. The note with it: buffer.
Data set [9] can be described thus: Metabolic stability by incubation with rat liver microsomes treated with Phenobarbital. It counts as ADME, Microsome.
Data set [10] is described as follows: Metabolic stability by incubation with human liver microsomes. It counts as ADME, Microsome.
A short description of data set [11]: Aqueous solubility at pH 7.4.
Data set [12] can be described thus: Chemical stability at pH 5.0. It counts as physicochemical. The note with it: buffer.
Data set [13] in a line: Half life in rat urine at 37 °C. The note with it: in vitro.
Data set [14] can be described thus: Distribution coefficient at pH 5.0, log D. The conditions noted are these: octanol/water.
A short description of data set [15]: Distribution coefficient at pH 7.4, log D. The conditions noted are these: octanol/water.
The target of data set [16] is T1, CYP2B6 (Homo sapiens, UniProt P20813).
T1 sequence (P20813 whole entry): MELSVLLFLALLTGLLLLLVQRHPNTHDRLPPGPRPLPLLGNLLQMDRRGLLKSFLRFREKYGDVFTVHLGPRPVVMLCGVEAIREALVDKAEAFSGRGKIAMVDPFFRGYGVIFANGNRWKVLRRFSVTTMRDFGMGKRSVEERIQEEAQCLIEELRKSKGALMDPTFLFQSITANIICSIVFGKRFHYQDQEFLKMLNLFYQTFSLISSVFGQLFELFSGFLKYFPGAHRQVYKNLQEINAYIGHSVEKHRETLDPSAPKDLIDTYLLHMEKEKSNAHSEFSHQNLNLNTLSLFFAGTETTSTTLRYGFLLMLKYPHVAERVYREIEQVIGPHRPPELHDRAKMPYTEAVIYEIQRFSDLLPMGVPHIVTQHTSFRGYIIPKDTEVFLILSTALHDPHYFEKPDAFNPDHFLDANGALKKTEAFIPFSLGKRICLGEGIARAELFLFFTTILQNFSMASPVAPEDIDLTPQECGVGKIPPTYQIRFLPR
As to the kind of experiment: Binding constant for compound binding to CYP2B6. It counts as ADME.

A short description of data set [17]: Chemical stability at pH 3.0. It counts as physicochemical. The note with it: buffer.

Values after ≈ are worked out from the molar mass of the structure shown.

By half-life is commonly meant how long it takes for the measured level to halve. Usually solubility stands for the dissolved amount per volume that the medium holds. A low value points to little dissolved substance. As to `CC(C(=O)O)c1cccc(/C(=N\O)c2ccccc2)c1` (stereo not given), the half-life was found to be 100 h in [1]; 167 h in data set [3]; 72 h in data set [5]; 796 h in data set [7]; 6 h in [8]; 84 h in data set [9]. In data set [10], this compound gave a half-life of 83.6 h. Also, the T1/2 result in [2], in data set [6] and in data set [12] was “Not Active” in each case. The solubility in [4] was 1800 µg/mL (≈ 6680 µM); in data set [11] (buffer) it was 116000 µg/mL (≈ 431000 µM).

The term logD denotes the decadic logarithm of the distribution of all forms, ionised or not, between an organic phase and buffer at a given pH. A low value points to a more hydrophilic compound. A word on the Km: it is the concentration of substrate that gives half-maximal velocity. With `COc1ccc2cc(CC/C(C)=N/O)ccc2c1`, the half-life in [1] was 0.0333 h; in [3] it was 0.967 h; in data set [13], 69 h; in [5], 0.767 h; in [6] it was 720 h; in [7], 591 h. Also, the half-life in [8] came out at 0.1 h; in [9] it was 0.467 h; in data set [10], 0.85 h; in [12], 16.3 h; in data set [17], 0.183 h. Moreover, in data set [2], the T1/2 result was “Not Active”. Besides, the figures for the solubility in data set [4] and in [11] (buffer) were 3 µg/mL (≈ 12.3 µM) and 2 µg/mL (≈ 8.22 µM), respectively. In addition, the logD in data set [14] and in [15] was 3.6 throughout. The Km in [16] came out at 70 µM.

Consider `CC(C(=O)O)c1cccc(C(=O)c2ccccc2)c1` (stereo not given) [KETOPROFEN], for which the logD was 2.1 in [14] and 0.008 in data set [15].

For `COc1ccc2cc(CCC(C)=O)ccc2c1` [NABUMETONE], the solubility came to 6.4 µg/mL (≈ 28 µM) in data set [4] and 4.3 µg/mL (≈ 18.8 µM) in [11] (aqueous). Also, the logD in [14] is 3.2; in data set [15], 3.3.
